Measurements published in patent US5672472A, “Synthetic unrandomization of oligomer fragments” (ISIS Pharmaceuticals, Inc., priority 1994, dated 1997).

Experiments:
ras 47-mer stem/loop RNA = assay: Gel-shift assay of random 2'-O-methyl oligonucleotide sets binding to ras RNA target; details: for Kd: Table 3, 2'-O-methyl sets, ras RNA about 10 pM, 100 mM NaCl, 10 mM MgCl2, 4 h at 37° C., read-out: KD (set KD); for binding in gel shift (FIG. 2B) / shift of the target: Round 2; for binding in gel shift (FIG. 2B): sets at 1 and 10 μM
protein CD4 = assay: Gel shift of 5' end labeled oligonucleotide groups with CD4; format: binding; details: for binding to the protein CD4: 100 pmoles labeled group, FIG. 7
HIV tat protein = assay: Binding of oligonucleotide groups to HIV tat protein; details: Example 27
target protein = assay: Gel shift assay of anion-exchange subfractions of oligonucleotide sets; format: binding; details: first round; sets subfractionated by charge
Protocol: An oligonucleotide analog group comprising four sets of oligonucleotides eight positions in length is prepared in accordance with Examples 3 and 6 wherein each of the sets has a different one of adenins, guanine, thymidine and cytosine in the 5th position, and the rest of the positions are randomized to provide the group: NNNNANNN, NNNNGNNN, NNNNTNNN, and NNNNCNNN. Each set is subfractionated by charge with an anion exchange column. Each subfraction is tested for affinity for the target protein by gel shift assay. […] In a further round, the 5th position is fixed to contain an adenins in the 5th position, and each set has a different nucleotide in the fourth position to provide the group NNNAANNN, NNNTANNN, NNNGANNN, and NNNCANNN. The sets are again subfractionated by charge with an anion exchange column and the subfractions are tested for affinity for the target protein by gel shift assay. The steps are repeated until each position is determined.

NNNNCNNNN [NNNNXNNNN X=C]
shift of the target to the bound form (ras 47-mer stem/loop RNA; Round 1, 50 uM oligonucleotide concentration): more than 50% | Kd (ras 47-mer stem/loop RNA): 10 µM

NNNNCNANN [NNNNCNXNN X=A]
binding in gel shift (FIG. 2B) (ras 47-mer stem/loop RNA): minimal binding | Kd (ras 47-mer stem/loop RNA): > 10 µM

NNNNTNNNN [2'-O-methyl set]
binding to the protein CD4 (protein CD4): No binding

NNNNTNNNN
binding against the tat protein (HIV tat protein): Binding has been observed | binding to the protein CD4 (protein CD4; listed as phosphorothioate oligonucleotide): binding of the oligonucleotide to the protein | binding affinity for CD4 (FIG. 7 legend) (protein CD4; 100 pmoles, visible at 0.5 and 1 μG CD4, presence and absence of dIdC): exhibited binding

NNNNGNNNN [NNNNXNNNN X=G]
binding in gel shift (FIG. 2A) (ras 47-mer stem/loop RNA; Round 1, sets at 5, 10, 50 and 100 μM): no binding | Kd (ras 47-mer stem/loop RNA): > 100 µM

NNNNCNGNN [NNNNCNXNN X=G]
binding in gel shift (FIG. 2B) (ras 47-mer stem/loop RNA): minimal binding | Kd (ras 47-mer stem/loop RNA): > 10 µM

NNNNCNCNN [NNNNCNXNN X=C]
shift of the target (ras 47-mer stem/loop RNA; 1 μM): > 25% | shift of the target (ras 47-mer stem/loop RNA; 10 μM): about 50% | Kd (ras 47-mer stem/loop RNA): 4 µM

NNNNANNN [Set A]
binding affinity of subfraction for the target protein (target protein): highest binding affinity

NNNNANNNN [NNNNXNNNN X=A]
shift of ras target (FIG. 2A) (ras 47-mer stem/loop RNA; Round 1, 100 uM): slight shift | Kd (ras 47-mer stem/loop RNA): 22 µM

NNCNCNCNN [NNXNCNCNN X=C]
shift of the target (FIG. 2C) (ras 47-mer stem/loop RNA; Round 3, sets at 0.1 and 1 μM): greater than 50% | Kd (ras 47-mer stem/loop RNA): 0.5 µM
